Measurements from patent US9133155B2, “Antibacterial agents: high-potency myxopyronin derivatives” (Rutgers, The State University of New Jersey, priority 2010, dated 2015).
In brackets after ≈: the same amount, converted by molar mass. Read-outs that look alike come from different tables or passages of the source.

Key:
[1] = molecular target: E. coli RNA polymerase σ^70 holoenzyme (Escherichia coli, UniProt P0A8T7+P0A8V2); assay: Inhibition of Escherichia coli RNA polymerase (fluorescence-detected); assay type: biochemical; details: read-out: IC50 E. coli RNAP
Procedure: (§1) Fluorescence-detected RNA polymerase assays with E. coli RNA polymerase were performed by a modification of the procedure of Kuhlman et al., 2004 [Kuhlman, P., Duff, H. & Galant, A. (2004) A fluorescence-based assay for multisubunit DNA-dependent RNA polymerases. Anal. Biochem. 324, 183-190]. Reaction mixtures contained (20 μl): 0-100 nM test compound, 75 nM E. coli RNA polymerase σ^70 holoenzyme, 20 nM 384 bp DNA fragment containing the bacteriophage T4 N25 promoter, 100 μM ATP, 100 μM GTP, 100 μM UTP, 100 μM CTP, 50 mM Tris-HCl, pH 8.0, 100 mM KCl, 10 mM MgCl2, 1 mM DTT, 10 μg/ml bovine serum albumin, and 5.5% glycerol. Reaction components other than DNA and NTPs were pre-incubated for 10 min at 37° C. Reactions were carried out by addition of DNA and incubation for 5 min at 37° C., followed by addition of NTPs and incubation for 60 min at 37° C. DNA was removed by addition of 1 μl 5 mM CaCl2 and 2 U DNaseI (Ambion, Inc.), followed by incubation for 90 min at 37° C. RNA was quantified by addition of 100 μl RiboGreen RNA Quantitation Reagent (Invitrogen, Inc.; 1:500 dilution in Tris-HCl, pH 8.0, 1 mM EDTA), followed by incubation for 10 min at 25° C., followed by measurement of fluorescence intensity [excitation wavelength=485 nm and emission wavelength=535 nm; QuantaMaster QM1 spectrofluorometer (PTI, Inc.)].

[2] = molecular target: M. tuberculosis RNA polymerase (Mycobacterium tuberculosis, UniProt P9WGY7+P9WGY9); assay: Inhibition of Mycobacterium tuberculosis RNA polymerase (fluorescence-detected); assay type: biochemical
Procedure: as §1
Fluorescence-detected RNA polymerase assays with M. tuberculosis RNA polymerase were performed as in Example 17.1, using reaction mixtures containing (20 μl): 0-100 nM test compound, 75 nM M. tuberculosis RNA polymerase core enzyme, 300 nM M. tuberculosis σ^A, 20 nM 384 bp DNA fragment containing the bacteriophage […] N25 promoter, 100 μM ATP, 100 μM GTP, 100 μM UTP, 100 μM CTP, 40 mM Tris-HCl, pH 8.0, 80 mM NaCl, 5 mM MgCl2, 2.5 mM DTT, and 12.7% glycerol.

S. aureus RNA polymerase = S. aureus RNA polymerase (Staphylococcus aureus, UniProt P47768+Q2G0N5); assay: Inhibition of Staphylococcus aureus RNA polymerase (fluorescence-detected); assay type: biochemical
[3] = tested on: Acinetobacter baumannii ATCC 19606; assay: Inhibition of bacterial growth in culture (MIC, spiral gradient endpoint); assay type: cell-based; details: for MIC: Acinetobacter baumannii, ATCC19606, Mueller-Hinton II agar, 16 h at 37° C.
Source text: (§2) Minimum inhibitory concentrations (MICs) for Staphylococcus aureus ATCC 12600, Enterococcus faecalis ATCC 19433, Acinetobacter baumannii ATCC 19606, and Escherichia coli D21f2tolC were quantified using spiral gradient endpoint assays, essentially as described [Wallace, A. and Corkill, J. (1989) Application of the spiral plating method to study antimicrobial action. J. Microbiol. Meths. […] Int. J. Exp. Clin. Chemother. 3, 31-38; Schalkowsky S. (1994) Measures of susceptibility from a spiral gradient of drug concentrations. Adv. Exp. Med. Biol. 349, 107-120]. Assays employed exponential-gradient plates containing 150 mm×4 mm Mueller-Hinton II cation-adjusted agar and 0.4-100 μg/ml of test compound. Plates were prepared using an Autoplate 4000 spiral plater (Spiral Biotech, Inc.). Saturated overnight cultures were swabbed radially onto plates, and plates were incubated for 16 h at 37° C. For each culture, the streak length was measured using a clear plastic template (Spiral Biotech, Inc.), the test-compound concentration at the streak endpoint was calculated using the program SGE (Spiral Biotech, Inc.), and the MIC was defined as the calculated test-compound concentration at the streak endpoint.

[4] = tested on: Enterococcus faecalis ATCC 19433; assay: as above; assay type: cell-based; details: for MIC: Enterococcus faecalis, ATCC19433, Mueller-Hinton II agar, 16 h at 37° C., read-out: MIC E. faecalis 19433
Source text: as §2

[5] = tested on: Escherichia coli D21f2tolC; assay: as above; assay type: cell-based; details: 16 h, read-out: MIC E. coli D21f2tolC
Source text: as §2

[6] = tested on: Staphylococcus aureus ATCC 12600; assay: as above; assay type: cell-based; details: for MIC: Staphylococcus aureus, ATCC12600, Mueller-Hinton II agar, 16 h at 37° C., read-out: MIC S. aureus 12600; for inhibition of Staphylococcus aureus compared with Myx B and 7-desmethyl-Myx B: summary of Table 3
Source text: as §2

Staphylococcus aureus = assay: Antibacterial efficacy in mouse model of Staphylococcus aureus systemic infection (peritonitis model); assay type: in vivo, Swiss Webster mice
Procedure: (§3) Female Swiss Webster mice were experimentally infected by intraperitoneal administration of 5×10^7 colony forming units of Staphylococcus aureus in 10% hog gastric mucin. Test compounds (2-3 mg/ml in vehicle [9-19% dimethyacetamide/8-16% Cremophor EL in water, v/v]), positive controls (2 mg/ml vancomycin in vehicle), and negative controls (vehicle only and saline only), were administered by intravenous injection into a tail vein 1 h and 5 h post-infection (200 μl per injection). Survival was monitored for 12 h post-infection, or for 24, 48, and 72 h post-infection. At the end of the monitoring period, surviving animals were euthanized.

[7] = Tolerability upon intravenous injection (peritonitis model study); assay type: in vivo, Swiss Webster mice; details: daily total doses of at least 30 mg/kg; vehicles containing 9% to 19% dimethylacetamide and 8% to 16% Cremophor EL
Procedure: as §3

[8] = read-out: IC50 M. tuberculosis RNAP
[9] = Table 4a, total dose 30 mg/kg iv, 1 h and 5 h post-infection, vehicle 19% dimethylacetamide/8% Cremophor EL/73% water
[10] = Table 4c, total dose 30 mg/kg iv, vehicle 9% dimethylacetamide/8% Cremophor EL/83% water

Chain of M. tuberculosis RNA polymerase (P9WGY5 whole entry): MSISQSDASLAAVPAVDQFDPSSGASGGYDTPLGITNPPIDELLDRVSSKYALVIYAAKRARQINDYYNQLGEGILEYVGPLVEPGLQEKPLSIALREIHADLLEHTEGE
Chain of M. tuberculosis RNA polymerase (P9WGZ1 whole entry, further chain): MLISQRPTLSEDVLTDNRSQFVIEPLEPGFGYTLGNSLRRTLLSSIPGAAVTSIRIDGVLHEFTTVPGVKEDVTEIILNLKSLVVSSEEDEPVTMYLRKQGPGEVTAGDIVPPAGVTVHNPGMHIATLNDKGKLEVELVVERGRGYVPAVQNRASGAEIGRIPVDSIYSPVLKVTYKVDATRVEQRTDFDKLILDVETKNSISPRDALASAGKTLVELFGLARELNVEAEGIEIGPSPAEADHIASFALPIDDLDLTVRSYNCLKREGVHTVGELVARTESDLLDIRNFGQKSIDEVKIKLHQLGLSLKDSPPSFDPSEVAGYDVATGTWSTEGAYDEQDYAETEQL
Chain of M. tuberculosis RNA polymerase (P9WGY9 whole entry): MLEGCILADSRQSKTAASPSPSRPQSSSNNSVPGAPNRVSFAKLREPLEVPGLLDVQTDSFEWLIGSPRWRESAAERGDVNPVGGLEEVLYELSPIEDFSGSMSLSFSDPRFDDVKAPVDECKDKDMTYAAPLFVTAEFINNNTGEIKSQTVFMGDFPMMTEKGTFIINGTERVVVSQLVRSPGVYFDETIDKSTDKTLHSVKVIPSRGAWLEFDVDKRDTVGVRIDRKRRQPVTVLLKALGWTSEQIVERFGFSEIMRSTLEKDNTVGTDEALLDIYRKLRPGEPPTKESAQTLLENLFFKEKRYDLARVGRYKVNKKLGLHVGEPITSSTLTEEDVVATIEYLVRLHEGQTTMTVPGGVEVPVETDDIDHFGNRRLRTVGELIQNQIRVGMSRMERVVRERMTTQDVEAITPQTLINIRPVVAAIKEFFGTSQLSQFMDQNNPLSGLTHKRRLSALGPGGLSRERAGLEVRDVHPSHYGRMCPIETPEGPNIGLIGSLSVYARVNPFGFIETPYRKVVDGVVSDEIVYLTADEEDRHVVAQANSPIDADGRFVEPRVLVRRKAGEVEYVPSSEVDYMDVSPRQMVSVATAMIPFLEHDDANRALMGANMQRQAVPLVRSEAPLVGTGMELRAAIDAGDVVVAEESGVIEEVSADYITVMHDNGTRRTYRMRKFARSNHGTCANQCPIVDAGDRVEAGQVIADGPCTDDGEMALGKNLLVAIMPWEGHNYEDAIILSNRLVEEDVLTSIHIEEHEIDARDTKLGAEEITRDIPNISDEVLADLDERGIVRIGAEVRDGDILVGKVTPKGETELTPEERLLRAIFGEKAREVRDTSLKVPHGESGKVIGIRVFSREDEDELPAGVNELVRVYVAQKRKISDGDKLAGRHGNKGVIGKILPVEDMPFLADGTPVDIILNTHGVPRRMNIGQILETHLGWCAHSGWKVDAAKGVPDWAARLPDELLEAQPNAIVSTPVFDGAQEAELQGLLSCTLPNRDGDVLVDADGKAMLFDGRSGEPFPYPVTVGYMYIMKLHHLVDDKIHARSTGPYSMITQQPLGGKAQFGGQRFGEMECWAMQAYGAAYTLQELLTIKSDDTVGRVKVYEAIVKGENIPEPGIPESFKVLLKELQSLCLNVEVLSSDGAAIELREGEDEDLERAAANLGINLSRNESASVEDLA
Chain of M. tuberculosis RNA polymerase (P9WGY7 whole entry): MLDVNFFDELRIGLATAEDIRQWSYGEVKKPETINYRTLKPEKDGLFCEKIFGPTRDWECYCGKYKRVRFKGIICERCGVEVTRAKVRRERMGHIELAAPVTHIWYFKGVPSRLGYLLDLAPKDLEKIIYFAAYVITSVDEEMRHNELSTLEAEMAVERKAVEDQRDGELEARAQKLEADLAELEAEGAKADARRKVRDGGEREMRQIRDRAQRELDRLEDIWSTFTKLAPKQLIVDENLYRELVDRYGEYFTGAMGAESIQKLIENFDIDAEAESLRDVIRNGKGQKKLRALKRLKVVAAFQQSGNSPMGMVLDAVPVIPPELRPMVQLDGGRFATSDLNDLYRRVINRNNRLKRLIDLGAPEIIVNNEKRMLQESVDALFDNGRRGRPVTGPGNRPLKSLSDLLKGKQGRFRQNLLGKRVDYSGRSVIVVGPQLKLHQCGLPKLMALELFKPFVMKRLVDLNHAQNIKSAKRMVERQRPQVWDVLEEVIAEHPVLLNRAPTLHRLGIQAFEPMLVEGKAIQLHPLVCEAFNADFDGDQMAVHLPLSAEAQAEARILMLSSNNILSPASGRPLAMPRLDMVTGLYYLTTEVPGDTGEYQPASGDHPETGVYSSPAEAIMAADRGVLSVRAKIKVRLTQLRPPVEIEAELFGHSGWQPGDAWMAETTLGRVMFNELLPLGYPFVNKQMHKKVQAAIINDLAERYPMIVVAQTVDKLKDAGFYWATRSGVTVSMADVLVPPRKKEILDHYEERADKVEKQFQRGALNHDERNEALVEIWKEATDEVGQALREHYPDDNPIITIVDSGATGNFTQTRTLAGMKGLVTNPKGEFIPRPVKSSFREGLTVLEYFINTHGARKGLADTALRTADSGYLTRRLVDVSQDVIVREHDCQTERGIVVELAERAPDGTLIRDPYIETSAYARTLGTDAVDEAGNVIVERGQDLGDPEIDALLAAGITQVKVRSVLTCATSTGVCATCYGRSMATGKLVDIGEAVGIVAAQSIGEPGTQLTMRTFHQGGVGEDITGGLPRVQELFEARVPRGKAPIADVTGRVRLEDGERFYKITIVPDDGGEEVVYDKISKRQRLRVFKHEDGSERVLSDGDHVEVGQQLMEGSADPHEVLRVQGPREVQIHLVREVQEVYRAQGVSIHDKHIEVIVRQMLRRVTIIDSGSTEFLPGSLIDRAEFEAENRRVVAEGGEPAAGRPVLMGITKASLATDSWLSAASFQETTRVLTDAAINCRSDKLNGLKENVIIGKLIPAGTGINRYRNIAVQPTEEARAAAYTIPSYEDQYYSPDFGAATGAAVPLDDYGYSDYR
Chain of M. tuberculosis RNA polymerase (P9WGI1 whole entry, further chain): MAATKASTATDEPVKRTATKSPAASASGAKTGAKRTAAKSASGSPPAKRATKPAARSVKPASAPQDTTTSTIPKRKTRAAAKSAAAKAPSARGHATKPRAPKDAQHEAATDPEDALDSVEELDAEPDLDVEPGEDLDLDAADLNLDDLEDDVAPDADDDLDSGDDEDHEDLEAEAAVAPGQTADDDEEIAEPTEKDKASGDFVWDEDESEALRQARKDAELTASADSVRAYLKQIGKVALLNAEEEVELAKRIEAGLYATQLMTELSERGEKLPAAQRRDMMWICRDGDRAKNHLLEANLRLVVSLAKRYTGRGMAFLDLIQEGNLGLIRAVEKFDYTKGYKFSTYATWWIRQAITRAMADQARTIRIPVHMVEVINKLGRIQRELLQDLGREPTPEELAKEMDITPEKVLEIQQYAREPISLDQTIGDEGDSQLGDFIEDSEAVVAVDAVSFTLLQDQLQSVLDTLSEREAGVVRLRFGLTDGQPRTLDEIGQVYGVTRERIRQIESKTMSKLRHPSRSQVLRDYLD

SMILES	IC50 [1] [nM]	IC50 [2, 8] [nM]	IC50 (S. aureus RNA polymerase; read-out: IC50 S. aureus RNAP) [nM]	MIC [3] [µg/mL]	MIC [4] [µg/mL]	MIC [5] [µg/mL]	MIC [6] [µg/mL]	IC50 [2] [nM]	IC50 (S. aureus RNA polymerase) [nM]	inhibition of Acinetobacter baumannii (in words) ([3]; summary of Table 3)	inhibition of Staphylococcus aureus compared with Myx B and 7-desmethyl-Myx B [6]	12-hour survival (Staphylococcus aureus; [9]) [%]	effect on survival in a mouse model of Staphylococcus aureus infection (in words) (Staphylococcus aureus; summary of Tables 4a-4c)	acute toxicity upon intravenous injection [7]	inhibition of Enterococcus faecalis compared with Myx B and 7-desmethyl-Myx B ([4]; summary of Table 3)	12-hour survival (Staphylococcus aureus; Table 4b, total dose 30 mg/kg iv, vehicle 19% dimethylacetamide/16% Cremophor EL/73% water) [%]	24-hour survival (Staphylococcus aureus; [10]) [%]	48-hour survival (Staphylococcus aureus; [10]) [%]	72-hour survival (Staphylococcus aureus; [10]) [%]
CCCCCCCC/C=C/C=C(\C)C(=O)c1c(O)cc([C@H](C)CC/C=C/NC(=O)OC)oc1=O (racemic) [compound 4, methyl ((E)-5-(4-hydroxy-3-((2E,4E)-2-methyltrideca-2,4-dienoyl)-2-oxo-2H-pyran-6-yl)hex-1-enyl)carbamate]	4.6	320	8.3	3.1 (≈ 6.55 µM)	> 40	< 0.18	9.4 (≈ 19.8 µM)												
CCCC/C(C)=C/C=C(\C)C(=O)c1c(O)cc(CCC/C=C/NC(=O)OC)oc1=O [7-desmethyl-Myx B, Methyl ((E)-5-(3-((2E,4E)-2,5-dimethylnona-2,4-dienoyl)-4-hydroxy-2-oxo-2H-pyran-6-yl)pent-1-en-1-yl)carbamate, reference compound]	22			> 40	25 (≈ 59.9 µM)	0.195 (≈ 0.467 µM)	3.1 (≈ 7.43 µM)	81	140	not detectably inhibited									
CCCCC/C=C/C=C(\C)C(=O)c1c(O)cc(C(C)CC/C=C/NC(=O)OC)oc1=O (centres unmarked) [compound 1, Methyl ((E)-5-(4-hydroxy-3-((2E,4E)-2-methyldeca-2,4-dienoyl)-2-oxo-2H-pyran-6-yl)hex-1-en-1-yl)carbamate]	12	85	52	> 40	> 40	0.3 (≈ 0.695 µM)	1.4 (≈ 3.24 µM)												
CCCCCC/C=C/C=C(\C)C(=O)c1c(O)cc(C(C)CC/C=C/NC(=O)OC)oc1=O (centres unmarked) [compound 2, Methyl ((E)-5-(4-hydroxy-3-((2E,4E)-2-methylundeca-2,4-dienoyl)-2-oxo-2H-pyran-6-yl)hex-1-en-1-yl)carbamate]	11	70	23	25 (≈ 56.1 µM)	> 40	0.23 (≈ 0.516 µM)	1.4 (≈ 3.14 µM)												
CCCCCCC/C=C/C=C(\C)C(=O)c1c(O)cc(C(C)CC/C=C/NC(=O)OC)oc1=O (centres unmarked) [compound 3, Methyl ((E)-5-(4-hydroxy-3-((2E,4E)-2-methyldodeca-2,4-dienoyl)-2-oxo-2H-pyran-6-yl)hex-1-en-1-yl)carbamate]	6.8	270	17	5.6 (≈ 12.2 µM)	> 40	< 0.18	2.4 (≈ 5.22 µM)												
CCCCCC/C(C)=C/C=C(\C)C(=O)c1c(O)cc(CCC/C=C/NC(=O)OC)oc1=O [compound 6, Methyl ((E)-5-(3-((2E,4E)-2,5-dimethylundeca-2,4-dienoyl)-4-hydroxy-2-oxo-2H-pyran-6-yl)pent-1-en-1-yl)carbamate]	3.9	47	12	5.5 (≈ 12.3 µM)	13 (≈ 29.2 µM)	0.076 (≈ 0.171 µM)	0.45 (≈ 1.01 µM)				more potently than Myx B and 7-desmethyl-Myx B								
CCCCCC/C(C)=C/C=C(\C)C(=O)c1c(O)cc(CCC/C=C/NC(=O)OCC)oc1=O [compound 7, Ethyl ((E)-5-(3-((2E,4E)-2,5-dimethylundeca-2,4-dienoyl)-4-hydroxy-2-oxo-2H-pyran-6-yl)pent-1-en-1-yl)carbamate]	63	450	93	> 40	> 40	0.37 (≈ 0.805 µM)	12 (≈ 26.1 µM)												
CCCCC/C(C)=C/C=C(\C)C(=O)c1c(O)cc(C(C)CC/C=C/NC(=O)OC)oc1=O (centres unmarked) [compound 8, Methyl ((E)-5-(3-((2E,4E)-2,5-dimethyldeca-2,4-dienoyl)-4-hydroxy-2-oxo-2H-pyran-6-yl)hex-1-en-1-yl)carbamate]	4	19	9.2				0.5 (≈ 1.12 µM)				more potently than Myx B and 7-desmethyl-Myx B	75	increase survival	tolerated without acute toxicity					
CCCCCC/C(C)=C/C=C(\C)C(=O)c1c(O)cc(C(C)CC/C=C/NC(=O)OC)oc1=O (centres unmarked) [compound 9, Methyl ((E)-5-(3-((2E,4E)-2,5-dimethylundeca-2,4-dienoyl)-4-hydroxy-2-oxo-2H-pyran-6-yl)hex-1-en-1-yl)carbamate]	4.7	36	13	5.5 (≈ 12 µM)	6.4 (≈ 13.9 µM)	0.076 (≈ 0.165 µM)	0.34 (≈ 0.74 µM)				more potently than Myx B and 7-desmethyl-Myx B				more potently than Myx B and 7-desmethyl-Myx B				
CCCCC/C(C)=C\C=C(/C)C(=O)c1c(O)cc(CCC/C=C/NC(=O)OC)oc1=O [compound 10, Methyl ((E)-5-(3-((2E,4Z)-2,5-dimethyldeca-2,4-dienoyl)-4-hydroxy-2-oxo-2H-pyran-6-yl)pent-1-en-1-yl)carbamate]	40	340	100	> 40	> 40	0.39 (≈ 0.904 µM)	3.3 (≈ 7.65 µM)												
CN[C@H](CC(C)C)C(=O)N[C@H]1C(=O)N[C@@H](CC(N)=O)C(=O)N[C@H]2C(=O)N[C@H]3C(=O)N[C@H](C(=O)N[C@H](C(=O)O)c4cc(O)cc(O)c4-c4cc3ccc4O)[C@H](O)c3ccc(c(Cl)c3)Oc3cc2cc(c3O[C@@H]2O[C@H](CO)[C@@H](O)[C@H](O)[C@H]2O[C@H]2C[C@](C)(N)[C@H](O)[C@H](C)O2)Oc2ccc(cc2Cl)[C@H]1O [vancomycin]												100				100	100	100	100
